Experimental data published in US20150329505A1, “A FLUORESCENT COMPOSITION FOR USE IN MARKING OBJECTS, SUCH AS FLOWERS” (BIOCONST PTY LTD, priority 2012, published 2015).
Where a name gives a salt, the structure may show the parent alone. Read-outs that look alike come from different tables or passages of the source.

Key:
flowers [1] = assay: Effect of sprayed solutions on wilting and vase life of flowers
Description: (§2) The above solutions were prepared by adding the fluorophore to tap water, in order to test the properties of the fluorophores in a non-sterilised, non-purified aqueous solution. The solutions were placed into a spray device for application to the surface of the relevant plants.
(§3) Solutions were sprayed onto chrysanthemums and roses and allowed to dry overnight at room temperature.

flowers [2] = details: in vivo
Description: as §2, §3

[3] = Fluorescence emitted by sprayed flowers when excited by UV light; details: 0.1% pyranine, 0.5% sugar, 0.1% sodium bicarbonate, pH 7.72, dried overnight, then 1 mM, 1.5 mM and 2 mM HCl
[4] = Autoclaving of fluorophore solutions; type: physicochemical; details: 0.5% (w/v) of the sugar, 0.1% pyranine, 0.1% sodium bicarbonate, autoclaved at 121° C.
Description: Fluorophore solution containing sugar caused the increase in growth of bacteria and fungus.
Fluorophore solution was prepared containing 0.1% (w/v) pyranine, 0.5% (w/v) sucrose, 0.1% (w/v) sodium bicarbonate. A similar solution was prepared with the same concentration of fructose. A small quantity of both the solutions prepared was kept aside for future use. Both the solutions were autoclaved at 121° C. in an Atherton Squirrel autoclave. This was then allowed to cool to room temperature and sprayed on flowers. Solutions which were kept aside previously (and which were not auto-claved) were also sprayed onto flowers. A negative control with no spray was also used to monitor vase life.

[5] = Effect of time of UV exposure on fluorescence; type: physicochemical; details: 0.1% (w/v) sprayed on flowers, 6 hours, UV torch 50,000 μW/cm2
Description: The effect of long term exposure of UV light was tested on flowers sprayed with fluorophore
Flowers were sprayed with 0.1% (w/v) pyranine solution. The flowers were allowed to dry overnight. A UV torch Optimax™ 365, having an intensity of 50,000 μW/cm2 was shone on the sprayed flowers.

chrysanthemum flower = assay: Uptake of fluorophore by cut flowers; type: in vivo; details: cut stems in 0.1% (w/v) pyranine, 0.5% (w/v) sucrose overnight
Description: (§1) Freshly cut stems of flowers (roses and chrysanthemums) were prepared and the ends of the stems placed in a solution of 0.1% (w/v) pyranine, 0.5% (w/v) sucrose. The cut end of the flowers was left in the solution overnight and uptake of the fluorophore viewed under UVA light.

rose flower = assay: Uptake of fluorophore by cut flowers; type: in vivo; details: cut stems in 0.1% (w/v) pyranine, 0.5% (w/v) sucrose overnight
Description: as §1

O=C([O-])c1ccccc1-c1c2cc(Br)c(=O)c(Br)c-2oc2c(Br)c([O-])c(Br)cc12.[Na+].[Na+] [Eosin Y, reference compound]
wilting of flowers and vase life (flowers [1]; 0.5% (w/v) in tap water, sprayed onto chrysanthemums and roses, dried overnight): caused wilting of flowers and reduced vase life

O=C1OC2(c3ccc(O)cc3Oc3cc(O)ccc32)c2ccccc21 [Fluorescein, reference compound]
wilting of flowers and vase life (flowers [2]): caused wilting of flowers and reduced vase life

Cl [HCl]
change of fluorescence colour after acidic spray [3]: no change in colour to fluorescent blue

O=C(CO)[C@@H](O)[C@H](O)[C@H](O)CO [fructose]
appearance of the solution after autoclaving [4]: dark brown

COC(=O)c1ccc(O)cc1 [methylparaben]
wilting and vase life (flowers [2]): caused wilting of the flowers and reduced the vase-life of the flower

O=S(=O)([O-])c1cc(O)c2ccc3c(S(=O)(=O)[O-])cc(S(=O)(=O)[O-])c4ccc1c2c34.[Na+].[Na+].[Na+] [pyranine, 8-Hydroxypyrene-1,3,6-trisulfonic acid trisodium salt]
change of fluorescence on continuous UV exposure [5]: no visible change in the colour of fluorescence
uptake of the fluorophore viewed under UVA light (chrysanthemum flower): The veins in the petals of the flower demonstrate fluorescence
uptake of the fluorophore viewed under UVA light (rose flower): The veins in the petals of the flower demonstrate fluorescence
vase life of flower (flowers [1]; 0.05% (w/v) in tap water, sprayed onto chrysanthemums and roses): did not affect the vase life of flower
vase life (flowers [1]; 0.05% to 0.5% (w/v) in tap water): did not affect vase life

O=C([O-])O.[Na+] [sodium bicarbonate]
vase life (flowers [2]): did not affect the vase-life of the flower

OC[C@H]1O[C@@](CO)(O[C@H]2O[C@H](CO)[C@@H](O)[C@H](O)[C@H]2O)[C@@H](O)[C@@H]1O [sucrose]
appearance of the solution after autoclaving [4]: fluorescent green
